Source: ChEMBL document CHEMBL5653631, “A Potent and Selective ULK1 Inhibitor Suppresses Autophagy and Sensitizes Cancer Cells to Nutrient Stress” (iScience, 2018)

Experiments:
[1] = target: Cell division cycle 7-related protein kinase (Homo sapiens) (UniProt O00311); test: Inhibition of human recombinant CDC7 at 40 nM in presence of ATP by radiometric assay relative to control
[2] = target: T1, Inhibitor of nuclear factor kappa-B kinase subunit epsilon (Homo sapiens) (UniProt Q14164); test: Inhibition of human recombinant IKKe at 40 nM in presence of ATP by radiometric assay relative to control
T1 sequence (whole entry): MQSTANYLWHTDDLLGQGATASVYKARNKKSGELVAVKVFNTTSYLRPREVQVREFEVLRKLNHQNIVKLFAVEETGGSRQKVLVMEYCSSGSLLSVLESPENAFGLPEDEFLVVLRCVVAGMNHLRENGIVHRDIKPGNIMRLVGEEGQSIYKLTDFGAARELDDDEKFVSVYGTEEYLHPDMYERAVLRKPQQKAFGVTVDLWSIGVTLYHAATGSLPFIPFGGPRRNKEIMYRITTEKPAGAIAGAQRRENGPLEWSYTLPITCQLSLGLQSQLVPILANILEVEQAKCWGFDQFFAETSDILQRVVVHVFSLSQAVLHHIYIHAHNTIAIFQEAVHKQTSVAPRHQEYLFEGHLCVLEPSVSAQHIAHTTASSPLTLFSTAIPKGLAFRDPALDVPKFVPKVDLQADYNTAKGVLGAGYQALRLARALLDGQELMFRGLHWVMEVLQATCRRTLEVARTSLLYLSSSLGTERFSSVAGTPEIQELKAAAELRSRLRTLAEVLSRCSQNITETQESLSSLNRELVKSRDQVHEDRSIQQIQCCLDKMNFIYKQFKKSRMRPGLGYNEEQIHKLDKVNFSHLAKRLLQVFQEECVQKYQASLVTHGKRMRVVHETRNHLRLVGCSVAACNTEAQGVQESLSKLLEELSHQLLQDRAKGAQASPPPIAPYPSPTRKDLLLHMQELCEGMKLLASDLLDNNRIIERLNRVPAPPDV

[3] = target: Ribosomal protein S6 kinase alpha-5 (Homo sapiens) (UniProt O75582); test: Inhibition of human recombinant MSK1 at 40 nM in presence of ATP by radiometric assay relative to control
[4] = target: T2, cGMP-dependent protein kinase 1 (Homo sapiens) (UniProt Q13976); test: Inhibition of human recombinant PKG1 at 40 nM in presence of ATP by radiometric assay relative to control
T2 sequence (whole entry): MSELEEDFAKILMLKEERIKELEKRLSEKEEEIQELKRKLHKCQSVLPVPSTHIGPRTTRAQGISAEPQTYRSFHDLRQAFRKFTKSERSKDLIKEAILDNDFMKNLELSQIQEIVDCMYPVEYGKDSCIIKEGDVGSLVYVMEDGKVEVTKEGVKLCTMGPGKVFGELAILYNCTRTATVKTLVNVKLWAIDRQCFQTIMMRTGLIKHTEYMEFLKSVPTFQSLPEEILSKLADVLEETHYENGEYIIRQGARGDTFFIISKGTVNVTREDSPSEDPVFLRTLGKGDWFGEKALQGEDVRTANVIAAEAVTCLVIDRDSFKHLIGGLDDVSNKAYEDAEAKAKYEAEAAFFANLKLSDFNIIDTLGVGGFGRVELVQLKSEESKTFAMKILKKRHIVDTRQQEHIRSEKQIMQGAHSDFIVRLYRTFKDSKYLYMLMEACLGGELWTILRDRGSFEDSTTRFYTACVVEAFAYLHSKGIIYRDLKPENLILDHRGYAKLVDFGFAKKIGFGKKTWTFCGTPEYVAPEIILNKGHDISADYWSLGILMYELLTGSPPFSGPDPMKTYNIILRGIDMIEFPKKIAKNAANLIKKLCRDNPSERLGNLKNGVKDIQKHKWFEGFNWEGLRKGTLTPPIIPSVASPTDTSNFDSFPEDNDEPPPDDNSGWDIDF

[5] = target: Leukocyte tyrosine kinase receptor (Homo sapiens) (UniProt P29376); test: Inhibition of human recombinant LTK at 40 nM related to control ULK1
[6] = target: Mitogen-activated protein kinase 11 (Homo sapiens) (UniProt Q15759); test: Inhibition of human recombinant p38beta at 40 nM related to control ULK1
[7] = target: Cyclin-dependent kinase 18 (Homo sapiens) (UniProt Q07002); test: Inhibition of human recombinant PCTAIRE3 at 40 nM related to control ULK1
[8] = target: Serine/threonine-protein kinase 35 (Homo sapiens) (UniProt Q8TDR2); test: Inhibition of human recombinant CLIK1 at 15 nM in presence of ATP by radiometric assay relative to control
[9] = target: Cyclin-dependent kinase 5 (Homo sapiens) (UniProt Q00535); test: Inhibition of human recombinant CDK5 at 15 nM related to control ULK1
[10] = target: Casein kinase II subunit alpha' (Homo sapiens) (UniProt P19784); test: Inhibition of human recombinant CK2a2 at 15 nM related to control ULK1
[11] = target: High affinity nerve growth factor receptor (Homo sapiens) (UniProt P04629); test: Inhibition of human recombinant TRKA at 15 nM related to control ULK1
[12] = target: Cyclin-dependent kinase 6 (Homo sapiens) (UniProt Q00534); test: Inhibition of human recombinant CDK6 at 500 nM in presence of ATP by radiometric assay relative to control
[13] = target: Maternal embryonic leucine zipper kinase (Homo sapiens) (UniProt Q14680); test: Inhibition of human recombinant MELK at 500 nM in presence of ATP by radiometric assay relative to control
[14] = target: Calcium/calmodulin-dependent protein kinase kinase 1 (Homo sapiens) (UniProt Q8N5S9); test: Inhibition of human recombinant CaMKK1 at 500 nM related to control ULK1
[15] = target: Serine/threonine-protein kinase WNK3 (Homo sapiens) (UniProt Q9BYP7); test: Inhibition of human recombinant Wnk3 at 500 nM related to control ULK1

High affinity nerve growth factor receptor (Homo sapiens), sequence (P04629 33-796 limits assumed): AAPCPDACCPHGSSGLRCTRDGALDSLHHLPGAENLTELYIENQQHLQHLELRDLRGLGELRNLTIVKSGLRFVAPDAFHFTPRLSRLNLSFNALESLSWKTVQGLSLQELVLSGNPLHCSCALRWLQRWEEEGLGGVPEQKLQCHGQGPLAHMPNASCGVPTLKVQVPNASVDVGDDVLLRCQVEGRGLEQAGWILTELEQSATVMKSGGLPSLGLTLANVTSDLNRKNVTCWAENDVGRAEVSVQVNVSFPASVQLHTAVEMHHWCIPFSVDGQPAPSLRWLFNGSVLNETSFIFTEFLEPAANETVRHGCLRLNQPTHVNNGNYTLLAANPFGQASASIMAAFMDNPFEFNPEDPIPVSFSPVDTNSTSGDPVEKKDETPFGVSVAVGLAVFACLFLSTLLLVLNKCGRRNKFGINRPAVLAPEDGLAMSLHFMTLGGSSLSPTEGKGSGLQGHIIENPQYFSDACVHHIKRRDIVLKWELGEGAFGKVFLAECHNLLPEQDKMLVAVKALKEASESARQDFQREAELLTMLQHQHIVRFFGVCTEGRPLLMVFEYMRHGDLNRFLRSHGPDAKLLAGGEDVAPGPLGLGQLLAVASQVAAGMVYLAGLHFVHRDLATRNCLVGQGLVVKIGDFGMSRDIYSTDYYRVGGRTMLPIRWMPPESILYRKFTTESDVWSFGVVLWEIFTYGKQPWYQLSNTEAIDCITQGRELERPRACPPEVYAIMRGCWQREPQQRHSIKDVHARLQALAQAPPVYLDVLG
Cell division cycle 7-related protein kinase (Homo sapiens), sequence (O00311 whole entry, looked up): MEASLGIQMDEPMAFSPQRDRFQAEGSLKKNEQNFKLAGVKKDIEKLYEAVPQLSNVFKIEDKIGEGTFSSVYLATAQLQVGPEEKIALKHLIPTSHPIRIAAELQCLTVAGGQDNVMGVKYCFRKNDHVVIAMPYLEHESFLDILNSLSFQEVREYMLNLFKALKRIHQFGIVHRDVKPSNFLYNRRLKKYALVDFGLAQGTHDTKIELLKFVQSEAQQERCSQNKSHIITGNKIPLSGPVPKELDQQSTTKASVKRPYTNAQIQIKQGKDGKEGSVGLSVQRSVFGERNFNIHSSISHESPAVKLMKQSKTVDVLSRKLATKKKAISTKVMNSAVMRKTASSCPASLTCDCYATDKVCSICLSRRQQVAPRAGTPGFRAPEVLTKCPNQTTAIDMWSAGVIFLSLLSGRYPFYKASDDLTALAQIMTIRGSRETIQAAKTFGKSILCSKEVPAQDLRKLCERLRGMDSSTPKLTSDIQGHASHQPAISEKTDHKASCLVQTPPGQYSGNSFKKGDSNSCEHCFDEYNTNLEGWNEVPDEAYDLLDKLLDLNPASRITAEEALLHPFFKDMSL
Casein kinase II subunit alpha' (Homo sapiens), sequence (P19784 whole entry, looked up): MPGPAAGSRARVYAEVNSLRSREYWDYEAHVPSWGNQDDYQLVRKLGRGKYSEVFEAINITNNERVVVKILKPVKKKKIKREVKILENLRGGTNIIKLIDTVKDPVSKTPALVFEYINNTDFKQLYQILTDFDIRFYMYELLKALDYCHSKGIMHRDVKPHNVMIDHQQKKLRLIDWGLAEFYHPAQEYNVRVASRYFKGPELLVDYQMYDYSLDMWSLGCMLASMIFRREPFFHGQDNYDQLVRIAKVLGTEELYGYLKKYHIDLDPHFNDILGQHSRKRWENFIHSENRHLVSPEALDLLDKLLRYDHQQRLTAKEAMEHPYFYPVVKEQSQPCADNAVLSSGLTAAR
Serine/threonine-protein kinase 35 (Homo sapiens), sequence (Q8TDR2 whole entry): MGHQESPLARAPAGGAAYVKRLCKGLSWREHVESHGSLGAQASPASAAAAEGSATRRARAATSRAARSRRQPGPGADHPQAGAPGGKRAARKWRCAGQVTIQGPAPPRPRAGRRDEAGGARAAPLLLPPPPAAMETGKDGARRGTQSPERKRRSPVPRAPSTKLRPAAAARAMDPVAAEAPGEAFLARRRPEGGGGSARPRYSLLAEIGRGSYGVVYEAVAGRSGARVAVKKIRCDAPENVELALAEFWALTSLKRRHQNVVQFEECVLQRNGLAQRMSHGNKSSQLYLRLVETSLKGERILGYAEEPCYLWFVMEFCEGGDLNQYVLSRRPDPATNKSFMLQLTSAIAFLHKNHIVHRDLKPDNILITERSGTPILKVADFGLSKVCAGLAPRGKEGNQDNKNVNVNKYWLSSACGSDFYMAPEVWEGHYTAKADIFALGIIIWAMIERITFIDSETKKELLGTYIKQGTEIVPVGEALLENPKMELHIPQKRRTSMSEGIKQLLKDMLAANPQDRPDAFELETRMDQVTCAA
Cyclin-dependent kinase 5 (Homo sapiens), sequence (Q00535 whole entry, looked up): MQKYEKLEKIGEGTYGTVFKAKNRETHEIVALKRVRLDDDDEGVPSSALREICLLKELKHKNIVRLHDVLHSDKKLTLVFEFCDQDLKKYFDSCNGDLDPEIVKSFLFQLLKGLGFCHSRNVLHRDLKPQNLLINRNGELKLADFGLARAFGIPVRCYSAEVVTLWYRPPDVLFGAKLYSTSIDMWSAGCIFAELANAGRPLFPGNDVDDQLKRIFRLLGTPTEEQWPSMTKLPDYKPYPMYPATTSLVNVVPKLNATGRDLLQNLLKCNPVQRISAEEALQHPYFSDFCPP
Cyclin-dependent kinase 18 (Homo sapiens), sequence (Q07002 whole entry): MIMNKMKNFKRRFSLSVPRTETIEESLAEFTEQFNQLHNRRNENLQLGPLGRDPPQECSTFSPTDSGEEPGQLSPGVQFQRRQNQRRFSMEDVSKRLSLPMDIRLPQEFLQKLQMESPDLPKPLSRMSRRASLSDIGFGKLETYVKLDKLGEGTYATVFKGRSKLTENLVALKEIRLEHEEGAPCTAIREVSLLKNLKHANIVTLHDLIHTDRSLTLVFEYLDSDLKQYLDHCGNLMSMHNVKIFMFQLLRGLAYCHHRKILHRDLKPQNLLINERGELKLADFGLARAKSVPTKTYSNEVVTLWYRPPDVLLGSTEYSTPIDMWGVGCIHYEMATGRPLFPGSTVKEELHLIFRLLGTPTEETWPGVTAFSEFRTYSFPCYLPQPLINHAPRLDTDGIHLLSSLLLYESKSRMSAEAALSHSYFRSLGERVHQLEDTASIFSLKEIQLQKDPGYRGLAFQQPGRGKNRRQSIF
Ribosomal protein S6 kinase alpha-5 (Homo sapiens), sequence (O75582 whole entry, looked up): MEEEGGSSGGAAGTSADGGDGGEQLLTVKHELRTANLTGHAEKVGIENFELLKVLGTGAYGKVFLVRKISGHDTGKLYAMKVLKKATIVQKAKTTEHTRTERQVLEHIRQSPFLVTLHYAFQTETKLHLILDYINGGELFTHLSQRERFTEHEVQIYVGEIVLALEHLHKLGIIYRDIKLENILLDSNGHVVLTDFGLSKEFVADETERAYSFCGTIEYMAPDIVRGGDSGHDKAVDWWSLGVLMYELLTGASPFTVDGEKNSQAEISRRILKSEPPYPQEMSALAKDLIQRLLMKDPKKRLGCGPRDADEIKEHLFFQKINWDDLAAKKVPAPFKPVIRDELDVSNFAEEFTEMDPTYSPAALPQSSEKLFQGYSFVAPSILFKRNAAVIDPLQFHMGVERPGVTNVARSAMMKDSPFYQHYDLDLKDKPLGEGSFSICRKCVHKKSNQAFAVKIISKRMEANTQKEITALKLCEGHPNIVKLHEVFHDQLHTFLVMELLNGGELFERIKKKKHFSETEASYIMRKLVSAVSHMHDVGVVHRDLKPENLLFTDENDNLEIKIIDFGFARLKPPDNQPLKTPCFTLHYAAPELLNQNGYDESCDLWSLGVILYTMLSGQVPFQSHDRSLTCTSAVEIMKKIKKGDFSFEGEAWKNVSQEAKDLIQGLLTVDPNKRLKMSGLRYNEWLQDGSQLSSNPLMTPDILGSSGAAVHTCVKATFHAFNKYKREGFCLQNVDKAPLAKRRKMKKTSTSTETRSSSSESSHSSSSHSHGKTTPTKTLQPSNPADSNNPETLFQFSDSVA
Mitogen-activated protein kinase 11 (Homo sapiens), sequence (Q15759 whole entry): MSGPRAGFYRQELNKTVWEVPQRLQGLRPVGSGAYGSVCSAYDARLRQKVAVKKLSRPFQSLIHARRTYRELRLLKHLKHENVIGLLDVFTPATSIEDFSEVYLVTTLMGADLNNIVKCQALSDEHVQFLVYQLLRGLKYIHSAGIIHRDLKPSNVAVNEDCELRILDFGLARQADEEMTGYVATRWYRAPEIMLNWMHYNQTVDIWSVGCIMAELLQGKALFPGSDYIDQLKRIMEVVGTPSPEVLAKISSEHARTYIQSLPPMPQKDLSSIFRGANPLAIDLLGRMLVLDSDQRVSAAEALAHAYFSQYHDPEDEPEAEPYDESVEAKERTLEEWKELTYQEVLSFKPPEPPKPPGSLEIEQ
Calcium/calmodulin-dependent protein kinase kinase 1 (Homo sapiens), sequence (Q8N5S9 whole entry, looked up): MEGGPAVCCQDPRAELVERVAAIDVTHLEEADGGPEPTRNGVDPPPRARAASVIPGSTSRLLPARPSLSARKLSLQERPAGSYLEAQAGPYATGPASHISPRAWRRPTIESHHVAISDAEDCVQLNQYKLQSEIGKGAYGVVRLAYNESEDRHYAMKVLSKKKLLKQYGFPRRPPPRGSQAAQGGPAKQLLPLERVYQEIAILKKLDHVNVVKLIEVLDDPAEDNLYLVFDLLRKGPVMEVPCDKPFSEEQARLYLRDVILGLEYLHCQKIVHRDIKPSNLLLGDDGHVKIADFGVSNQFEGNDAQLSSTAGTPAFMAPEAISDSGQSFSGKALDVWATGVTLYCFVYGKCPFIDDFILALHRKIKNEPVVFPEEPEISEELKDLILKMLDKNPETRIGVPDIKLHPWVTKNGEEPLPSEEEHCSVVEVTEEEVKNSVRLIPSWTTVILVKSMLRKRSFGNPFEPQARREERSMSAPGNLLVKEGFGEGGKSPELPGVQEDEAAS
Cyclin-dependent kinase 6 (Homo sapiens), sequence (Q00534 whole entry): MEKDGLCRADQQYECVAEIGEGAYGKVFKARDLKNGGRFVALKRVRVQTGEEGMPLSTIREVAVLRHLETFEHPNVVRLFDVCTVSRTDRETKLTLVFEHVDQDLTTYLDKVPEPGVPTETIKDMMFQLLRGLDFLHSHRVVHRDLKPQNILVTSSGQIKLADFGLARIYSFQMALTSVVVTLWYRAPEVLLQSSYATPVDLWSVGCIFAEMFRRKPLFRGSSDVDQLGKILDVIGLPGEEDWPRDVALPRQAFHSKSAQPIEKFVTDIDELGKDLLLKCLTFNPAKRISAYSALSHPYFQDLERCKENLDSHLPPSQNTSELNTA

O=C(N[C@@H](C1CC1)C(F)(F)F)c1cc(-c2cnn3cc(-c4ccc(F)cc4)cnc23)cs1
inhibition [1]: 39% | inhibition [2]: 30% | inhibition [3]: 0% | inhibition [4]: 6% | fold change (FC) [5]: 0 | fold change (FC) [6]: 0.14 | fold change (FC) [7]: 0.42

CC(C)[C@H](NC(=O)c1cc(-c2cnn3cc(-c4ccc(OCCN5CCCCC5)cc4)cnc23)cs1)C(F)(F)F
inhibition [8]: 9% | fold change (FC) [9]: 0.26 | fold change (FC) [10]: 0.06 | fold change (FC) [11]: 0

CNC(=O)c1ccccc1Oc1nc(Nc2cc(OC)c(OC)c(OC)c2)ncc1Br
inhibition [12]: 0% | inhibition [13]: 0% | fold change (FC) [14]: 0.11 | fold change (FC) [15]: 0.08
